Source: patent US6525211B1, “Herbicidal sulphonylamino(thio)carbonyl compounds” (Bayer Aktiengesellschaft, priority 1995, dated 2003)

Key:
broad-leaved weeds [1] = assay: Pre-emergence test (Example A); type: in vivo; details: soil watered with preparation 24 hours after sowing, rated after three weeks vs untreated control (0%=no action, 100%=total destruction)
Protocol: Solvent: 5 parts by weight of acetone
Emulsifier: 1 part by weight of alkylaryl polyglycol ether
(§1) To produce a suitable preparation of active compound, 1 part by weight of active compound is mixed with the stated amount of solvent, the stated amount of emulsifier is added and the concentrate is diluted with water to the desired concentration.
Seeds of the test plants are sown in normal soil, and, after 24 hours, the soil is watered with the preparation of the active compound. It is expedient to keep constant the amount of water per unit area. The concentration of the active compound in the preparation is of no importance, only the amount of active compound applied per unit area being decisive.
After three weeks, the degree of damage to the plants is rated in % damage in comparison to the development of the untreated control. The figures denote:
(§2) 0%=no action (like untreated control) 100%=total destruction

broad-leaved weeds [2] = assay: Post-emergence test (Example B); type: in vivo; details: test plants of 5-15 cm height sprayed, 2,000 l water/ha, rated after three weeks vs untreated control (0%=no action, 100%=total destruction)
Protocol: as §1
Test plants which have a height of 5-15 cm are sprayed with the preparation of the active compound in such a way as to apply the particular amounts of active compound desired per unit area. The concentration of the spray liquor is chosen so that the particular amounts of active compound desired are applied in 2,000 1 of water/ha. After three weeks, the degree of damage to the plants is rated in % damage in comparison to the development of the untreated control.
as §2

melting point [°C] | SMILES | action against broad-leaved weeds (degree of damage to the plants) (broad-leaved weeds [1]) | action against broad-leaved weeds (degree of damage to the plants) (broad-leaved weeds [2])
– | CCOc1nn(C(=O)NS(=O)(=O)c2c(C)cccc2OC(C)C)c(=O)n1C [Example 1, 5-ethoxy-4-methyl-2-(2-isopropoxy-6-methyl-phenylsulphonyl-aminocarbonyl)-2,4-dihydro-3H-1,2,4-triazol-3-one] | very strong action | very strong action
162 | CCOc1cccc(C)c1S(=O)(=O)NC(=O)n1nc(OCC)n(C)c1=O [Example 9, 5-ethoxy-4-methyl-2-(2-ethoxy-6-methyl-phenylsulphonylaminocarbonyl)-2,4-dihydro-3H-1,2,4-triazol-3-one] | – | –
